The values that follow come from patent US20260176289A1, “SMALL MOLECULE INHIBITORS OF KRAS PROTEINS” (Merck Sharp & Dohme LLC, priority 2022, published 2026).

SMILES strings stand for the structures.

For assay [1], the target named is T1, KRAS G12D (amino acids 1-169) (Homo sapiens, UniProt P01116, G12D).
T1 construct: made in house; host or cells: E. coli
In words: SOS-catalyzed nucleotide exchange assay (Procedure B, BODIPY FL GDP displacement), KRAS G12D. The format is biochemical. As to conditions: read-out: KRAS G12D GNE IC50. As for the experimental part: (§1) Procedure for SOS-Catalyzed Nucleotide Exchange Assay for KRAS-G12C/D/V/WT (Procedure B)
(§2) Recombinant KRAS G12C (amino acids 1-169, SEQ ID NO:9), KRAS G12D (amino acids 1-169, SEQ ID NO: 10), KRAS G12V (amino acids 1-169, SEQ ID NO: 11), KRAS WT (amino acids 1-169, SEQ ID NO:12) and SOS1 (amino acids 564-1049, SEQ ID NO: 13) proteins were expressed in E. coli and purified by affinity chromatography. To prepare each BODIPY™ FL GDP-bound KRAS protein, 50 μM KRAS proteins were incubated with 0.5 mM BODIPY™ FL GDP (Invitrogen, G22360) in a loading buffer (20 mM Tris-HCl pH 7.5, 50 mM NaCl, 1 mM DTT and 2.5 mM EDTA) for 1 hour on ice. After the incubation, MgCl2 was added to a final concentration of 10 mM, followed by an incubation at room temperature for 30 minutes. The mixtures were allowed to pass through a NAP-5 column to remove free nucleotides and purified BODIPY™ FL GDP-bound KRAS G12C, G12D, G12V and WT proteins were used for compound evaluation.
(§3) The inhibitory activity of compounds on recombinant KRAS is measured by the displacement of the bound BODIPY™ GDP. Specifically, 2.5 nM of each BODIPY™ FL GDP-bound KRAS complex was incubated with various concentrations of compound in a reaction buffer (20 mM Tris-HCl pH 7.5, 100 mM NaCl, 1 mM MgCl2, 2 mM DTT, 0.1% Tween 20) at 25° C. for 1 hour. After the incubation, recombinant SOS1 and GMPPNP (Jena Bioscience GmbH, NU-401) were added and incubated at room temperature for 30 minutes to proceed SOS1-dependent GDP-GTP exchange reaction on KRAS. Displacement of BODIPY™ FL GDP by Guanosine-5′-[(β,γ)-imido]triphosphate, Tetralithium salt (GMPPNP) was measured by calculating the ratio of fluorescence intensities of BODIPY™ FL before and after the exchange reaction. Percent Inhibition was calculated by setting the fluorescence ratio from the reaction without test compound (DMSO control) and the fluorescence ratio from the reaction without SOS1 and GMPPNP as 0% and 100% inhibition, respectively. Dose response curves were analyzed using a 4-parameter logistic model to calculate IC50 values.

Assay [2] concerns the target T2, KRAS G12V (amino acids 1-169) (Homo sapiens, UniProt P01116, G12V).
T2 construct: made in house; host or cells: E. coli
In words: SOS-catalyzed nucleotide exchange assay (Procedure B, BODIPY FL GDP displacement), KRAS G12V. The format is biochemical. As to conditions: read-out: KRAS G12V GNE IC50. As for the experimental part:
as §1, §2, §3

Assay [3] has as its target T3, KRAS WT (amino acids 1-169) (Homo sapiens, UniProt P01116).
T3 construct: made in house; host or cells: E. coli
In words: SOS-catalyzed nucleotide exchange assay (Procedure B, BODIPY FL GDP displacement), KRAS WT. The format is biochemical. As to conditions: read-out: KRAS WT GNE IC50. As to the method: as §1, §2, §3

Assay [4] addresses T4, KRAS G12C (amino acids 1-169) (Homo sapiens, UniProt P01116, G12C).
T4 construct: made in house; host or cells: E. coli
Nature of the assay: SOS-catalyzed nucleotide exchange assay (Procedure B, BODIPY FL GDP displacement), KRAS G12C. The format is biochemical. As to conditions: read-out: KRAS G12C GNE IC50. As to the method:
as §1, §2, §3

The test system of assay [5] is MKN-1 cells. In words: Cellular phospho-ERK assay, MKN-1 cells (amplified wild-type KRAS). The format is cell-based. As to conditions: Homo sapiens, amplified wild-type KRAS, 2 hours, read-out: MKN1 pERK IC50. The method, boiled down: (§4)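 ERK phosphorylation relative to total ERK is the endpoint, detected by AlphaScreen-based SureFire multiplex following a 2-hour treatment at 37 °C. Compounds are titrated 1:3 over ten points from 30 μM.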

The target of assay [6] is KRAS-G12D (Homo sapiens, UniProt P01116, G12D). Nature of the assay: SOS-catalyzed nucleotide exchange assay (Procedure A, TR-FRET), KRAS-G12D. The format is biochemical. The note with it: nucleotide exchange, read-out: KRAS G12D GNE IC50. The method, boiled down:
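Signal ratio (520/495 nm, excitation 340 nm) reports Bodipy-GDP retention on biotinylated RAS after SOS-catalyzed exchange with 3 mM GTP. SOS was 40 nM, except 160 nM for G12V. Room-temperature exchange lasted 60 min (90 min for G12V), following a 60 min compound preincubation.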
Background: Time-resolved FRET reads energy transfer from a long-lived donor to a nearby acceptor.

Assay [7] concerns PANC08.13 cells. Nature of the assay: Cellular phospho-ERK assay, PANC08.13 cells (homozygous KRAS-G12D). The format is cell-based. As to conditions: Homo sapiens, PANC-08-13, KRAS-G12D, 2 hours, read-out: PANC-08.13 pERK IC50. Summed up:
as §4

Assay [8] concerns the target KRAS-G12V (Homo sapiens, UniProt P01116, G12V). In words: SOS-catalyzed nucleotide exchange assay (Procedure A, TR-FRET), KRAS-G12V. The note with it: nucleotide exchange, read-out: KRAS G12V GNE IC50. The format is biochemical. Summed up:
(§5)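 TR-FRET readout (520/495 nm) of SOS-driven exchange of Bodipy-GDP for unlabeled GTP (3 mM) on biotinylated, Tb-streptavidin-bound RAS, after 60 min compound preincubation at room temperature. Exchange times and RAS/SOS levels: 60 min for WT (1/40 nM), G12C triple mutant (3/40 nM), NRAS (1.25/40 nM); 90 min for G12V (1.25/160 nM). Four-parameter logistic fits on normalized effect.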

Assay [9] has as its target KRAS-G12C (C51S/C80L/C118S) (Homo sapiens, UniProt P01116, C118S/C51S/C80L/G12C). Nature of the assay: SOS-catalyzed nucleotide exchange assay (Procedure A, TR-FRET), KRAS-G12C. The format is biochemical. The note with it: nucleotide exchange, Procedure A; read-out: KRAS G12C GNE IC50. The method, boiled down: as §5
The test system of assay [10] is AsPC-1 cells. In words: Cellular phospho-ERK assay, AsPC-1 cells (homozygous KRAS-G12D). The format is cell-based. As to conditions: Homo sapiens, ASPC1, 2 h, KRAS-G12D, 2 hours, read-out: AsPC1 pERK IC50. Summed up: as §4
In assay [11] the test system is SW620 cells. Nature of the assay: Cellular phospho-ERK assay, SW620 cells (homozygous KRAS-G12V). The note with it: Homo sapiens, SW-620, KRAS-G12V, 2 hours, read-out: SW620 pERK IC50. The format is cell-based. Summed up:
as §4

In assay [12] the target is KRAS-G13D (Homo sapiens, UniProt P01116, G13D). Nature of the assay: SOS-catalyzed nucleotide exchange assay (Procedure A, TR-FRET), KRAS-G13D. The format is biochemical. As to conditions: nucleotide exchange, Procedure A; read-out: KRAS G13D GNE IC50.
Assay [13] deals with KRAS-WT (Homo sapiens, UniProt P01116). In words: SOS-catalyzed nucleotide exchange assay (Procedure A, TR-FRET), KRAS-WT. The format is biochemical. The note with it: nucleotide exchange, read-out: KRAS WT GNE IC50. Summed up:
as §5

T4 sequence (P01116 with tags, fused parts or gaps isoform P01116-2 G12C): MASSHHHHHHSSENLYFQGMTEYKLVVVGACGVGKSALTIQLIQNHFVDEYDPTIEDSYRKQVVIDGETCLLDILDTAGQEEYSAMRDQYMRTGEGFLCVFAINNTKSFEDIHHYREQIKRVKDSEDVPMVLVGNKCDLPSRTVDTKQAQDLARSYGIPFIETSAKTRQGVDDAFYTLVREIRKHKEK
T2 sequence (P01116 with tags, fused parts or gaps isoform P01116-2 G12V): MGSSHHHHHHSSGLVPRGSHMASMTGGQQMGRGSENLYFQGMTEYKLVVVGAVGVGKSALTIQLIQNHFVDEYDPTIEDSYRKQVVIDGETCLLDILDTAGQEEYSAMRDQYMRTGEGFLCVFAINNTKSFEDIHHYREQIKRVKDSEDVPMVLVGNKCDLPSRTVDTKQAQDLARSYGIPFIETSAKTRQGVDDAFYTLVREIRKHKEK
T3 sequence (P01116 with tags, fused parts or gaps isoform P01116-2): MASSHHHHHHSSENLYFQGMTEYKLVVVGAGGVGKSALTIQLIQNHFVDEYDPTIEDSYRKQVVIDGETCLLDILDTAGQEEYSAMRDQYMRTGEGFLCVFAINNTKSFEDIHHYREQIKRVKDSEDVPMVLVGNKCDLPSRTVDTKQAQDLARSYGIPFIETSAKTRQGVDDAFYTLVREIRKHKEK
T1 sequence (P01116 with tags, fused parts or gaps isoform P01116-2 G12D): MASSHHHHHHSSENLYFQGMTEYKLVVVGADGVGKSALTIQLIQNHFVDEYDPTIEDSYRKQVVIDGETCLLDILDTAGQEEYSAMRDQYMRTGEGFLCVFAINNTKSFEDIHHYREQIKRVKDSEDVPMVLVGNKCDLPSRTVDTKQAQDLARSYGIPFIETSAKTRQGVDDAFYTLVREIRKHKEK
Chain of KRAS-WT (P01116 with tags, fused parts or gaps isoform P01116-2): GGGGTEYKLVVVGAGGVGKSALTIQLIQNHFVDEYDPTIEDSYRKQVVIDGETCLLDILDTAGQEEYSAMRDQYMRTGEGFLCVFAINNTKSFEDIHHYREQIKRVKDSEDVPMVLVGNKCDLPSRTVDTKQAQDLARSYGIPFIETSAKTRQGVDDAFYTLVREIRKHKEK
Chain of KRAS-G12D (P01116 with tags, fused parts or gaps isoform P01116-2 G12D): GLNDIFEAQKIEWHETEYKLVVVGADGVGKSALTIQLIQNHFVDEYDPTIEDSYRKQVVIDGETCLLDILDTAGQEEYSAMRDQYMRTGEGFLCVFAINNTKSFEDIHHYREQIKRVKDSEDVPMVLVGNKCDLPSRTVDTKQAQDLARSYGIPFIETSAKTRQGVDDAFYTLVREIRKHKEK
Chain of KRAS-G13D (P01116 with tags, fused parts or gaps isoform P01116-2 G13D): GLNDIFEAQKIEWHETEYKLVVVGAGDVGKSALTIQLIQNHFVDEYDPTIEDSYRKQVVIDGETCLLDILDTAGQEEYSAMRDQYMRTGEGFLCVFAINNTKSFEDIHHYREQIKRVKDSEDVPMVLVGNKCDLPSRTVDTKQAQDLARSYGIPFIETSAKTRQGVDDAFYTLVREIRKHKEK
Chain of KRAS-G12C (C51S/C80L/C118S) (P01116 with tags, fused parts or gaps isoform P01116-2 G12C/C51S/C80L/C118S): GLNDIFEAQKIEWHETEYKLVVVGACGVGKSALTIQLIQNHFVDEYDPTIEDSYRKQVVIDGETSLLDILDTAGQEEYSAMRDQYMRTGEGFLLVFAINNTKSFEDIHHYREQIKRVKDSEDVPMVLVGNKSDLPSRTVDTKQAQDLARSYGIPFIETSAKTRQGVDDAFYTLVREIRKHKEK
Chain of KRAS-G12V (P01116 with tags, fused parts or gaps isoform P01116-2 G12V): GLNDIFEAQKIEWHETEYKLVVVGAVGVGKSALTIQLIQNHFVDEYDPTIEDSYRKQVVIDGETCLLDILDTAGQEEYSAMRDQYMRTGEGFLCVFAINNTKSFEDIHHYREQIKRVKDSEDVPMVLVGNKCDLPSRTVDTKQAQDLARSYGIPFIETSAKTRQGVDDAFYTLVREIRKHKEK

The IC50 is the concentration needed to halve the response being measured. Consider `CC1c2c(cc3[nH]ncc3c2-c2nccc3c2sc2nc(OC[C@@]45CCCN4C[C@H](F)C5)nc(N4CCOC[C@@](C)(O)C4)c23)C(C)(C)C1(F)F` (stereo partly drawn) [Ex-100, (6S)-4-(8-(6,6-difluoro-5,7,7-trimethyl-1,5,6,7-tetrahydrocyclopenta[f]in-dazol-4-yl)-2-(((2R,7aS)-2-fluorotetrahydro-1H-pyrrolizin-7a(5H)-yl)methoxy)pyrido[4′,3′: 4,5]thieno[2,3-d]pyrimidin-4-yl)-6-methyl-1,4-oxazepan-6-ol], for which the IC50 in [1] was 216 nM; in [2], 507 nM; in assay [3], 354 nM; in assay [4] it was 663 nM.

With `C[C@@]1(O)COCCN(c2nc(OC[C@@]34CCCN3C[C@H](F)C4)nc3sc4c(-c5c(-c6ccco6)c(Cl)cc6[nH]ncc56)nncc4c23)C1` [Ex-282], the IC50 was determined as 4.26 nM in assay [1], 12.5 nM in assay [2], 13.5 nM in [3] and 5.84 nM in assay [4].

Regarding `Cc1cc2[nH]ncc2c(-c2nccc3c2sc2nc(OC[C@@]45CCCN4C[C@H](F)C5)nc(N4CCOC[C@@](C)(O)C4)c23)c1C(C)C` [Ex-137, (6S)-4-(2-(((2R, 7aS)-2-fluorotetra-hydro-1H-pyrrol-izin-7a(5H)-yl)meth-oxy)-8-(5-isopropyl-6-methyl-1H-ind-azol-4-yl)pyrido [4′,3′:4,5]thieno[2,3-d]pyrimidin-4-yl)-6-methyl-1,4-oxaze-pan-6-ol], the IC50 in [1] was 32.6 nM; in assay [2], 66.7 nM; in assay [3], 58 nM; in [4], 40.1 nM.

For `Cc1cc2[nH]nc(I)c2c(-c2nccc3c2sc2nc(OC[C@@]45CCCN4C[C@H](F)C5)nc(N4CCOC[C@@](C)(O)C4)c23)c1C(F)(F)F` [Ex-149, (6S)-4-(2-(((2R,7aS)-2-fluorotetrahydro-1H-pyrrolizin-7a(5H)-yl)methoxy)-8-(3-iodo-6-methyl-5-(trifluoromethyl)-1H-indazol-4-yl)pyrido[4′,3′:4,5]thieno[2,3-d]pyrimidin-4-yl)-6-methyl-1,4-oxazepan-6-ol], the concentration for half-maximal inhibition (IC50) in assay [1] was 1470 nM; in assay [2], 2370 nM; in [3] it was 1350 nM; in assay [4], 1920 nM.

For `C[C@@]1(O)COCCN(c2nc(OC[C@@]34CCCN3C[C@H](F)C4)nc3sc4c(-c5c(C6(F)CC6)c(C6CC6)cc6[nH]ncc56)nccc4c23)C1` [Ex-57, (6S)-4-(8-(6-cyclopropyl-5-(1-fluorocyclopropyl)-1H-indazol-4-yl)-2-(((2R,7aS)-2-fluorotetrahydro-1H-pyrrolizin-7a(5H)-yl)methoxy)pyrido[4′,3′: 4,5]thieno[2,3-d]pyrimidin-4-yl)-6-methyl-1,4-oxazepan-6-ol], the 50% inhibitory concentration (IC50) in assay [1] was determined as 26.9 nM; in assay [2] it was 41.3 nM; in [3], 29.3 nM; in assay [4] it was 62.5 nM.

Regarding `Cc1cc2[nH]ncc2c(-c2nccc3c2sc2nc(OC[C@@]45CCCN4C[C@H](F)C5)nc(N4CCOCC(C)C4)c23)c1C(F)(F)F` (stereo partly drawn) [Ex-182, 4-(2-(((2R,7aS)-2-fluoro-tetrahydro-1H-pyrrolizin-7a(5H)-yl)methoxy)-8-(6-methyl-5-(trifluorometh-yl)-1H-indazol-4-yl)pyrido [4′,3′:4,5]thieno[2,3-d]pyr-imidin-4-yl)-6-methyl-1,4-oxazepane], the IC50 came to 3630 nM in assay [1], 3200 nM in assay [2], 2190 nM in [3] and 1260 nM in [4].

Regarding `Cc1cc2[nH]ncc2c(-c2nccc3c2sc2nc(OC[C@@]45CCCN4C[C@H](F)C5)nc(N4C[C@H](O)C[C@H]4C)c23)c1C(F)(F)F` [Ex-183, (3R,5R)-1-(2-(((2R,7aS)-2-fluorotetrahydro-1H-pyrrolizin-7a(5H)-yl)methoxy)-8-(6-methyl-5-(trifluoromethyl)-1H-indazol-4-yl)pyrido[4′,3′: 4,5]thieno[2,3-d]pyrimi-din-4-yl)-5-methylpyrrol-idin-3-ol], the half-inhibitory concentration (IC50) turned out to be 2190 nM in assay [1], 4640 nM in assay [2], 2990 nM in assay [3] and 2880 nM in [4].

As to `Cc1cc2[nH]ncc2c(-c2nccc3c2sc2nc(OC[C@@]45CCCN4C[C@H](F)C5)nc(N4CCOC[C@@](C)(O)C4)c23)c1C(F)F` [Ex-129, (6S)-4-(8-(5-(di-fluoromethyl)-6-methyl-1H-indazol-4-yl)-2-(((2R,7aS)-2-fluorotetrahydro-1H-pyrrolizin-7a(5H)-yl)methoxy)-pyrido[4′,3′:4,5]thieno[2,3-d]pyr-imidin-4-yl)-6-meth-yl-1,4-oxazepan-6-ol], the IC50 stood at 241 nM in assay [5]; 56.2 nM in assay [6]; 144 nM in assay [7]; 85 nM in [8]; 50 nM in assay [9]; 469 nM in [10]. The values for the concentration for half-maximal inhibition (IC50) in assay [11], in assay [12] and in assay [13] were 211 nM, 79 nM and 165 nM, respectively.

Regarding `Cc1cc2[nH]ncc2c(-c2nccc3c4c(N5CCOC[C@@](C)(O)C5)nc(OC[C@@]56CCCN5C[C@H](F)C6)nc4n(C)c23)c1C(F)(F)F` (single isomer, unassigned) [Ex-1], the 50% inhibitory concentration (IC50) was found to be 222 nM in [5]; 41.5 nM in [6]; 237 nM in assay [7]; 55.6 nM in assay [8]; 19.8 nM in [9]; 376 nM in assay [10]. For the same molecule, the half-inhibitory concentration (IC50) is 429 nM in assay [11], 77.4 nM in assay [12] and 93.4 nM in [13].
